Measurements taken from PMC4936272 (Bioorganic & medicinal chemistry letters, 2016).

Experiments:
Male ICR mice = experiment: Mouse tail flick test; format: in vivo; details: for Analgesia in tail flick test: 50 mg/kg intraperitoneal (IP); for Analgesia in tail flick test, dose-response: lower doses than 50 mg/kg IP
human FAAH = target: T1, human FAAH (Homo sapiens, UniProt O00519); experiment: Reversibility of FAAH inactivation by exhaustive dialysis; details: 144 hrs dialysis at 4°C after complete inactivation
T1 sequence (O00519 34-579): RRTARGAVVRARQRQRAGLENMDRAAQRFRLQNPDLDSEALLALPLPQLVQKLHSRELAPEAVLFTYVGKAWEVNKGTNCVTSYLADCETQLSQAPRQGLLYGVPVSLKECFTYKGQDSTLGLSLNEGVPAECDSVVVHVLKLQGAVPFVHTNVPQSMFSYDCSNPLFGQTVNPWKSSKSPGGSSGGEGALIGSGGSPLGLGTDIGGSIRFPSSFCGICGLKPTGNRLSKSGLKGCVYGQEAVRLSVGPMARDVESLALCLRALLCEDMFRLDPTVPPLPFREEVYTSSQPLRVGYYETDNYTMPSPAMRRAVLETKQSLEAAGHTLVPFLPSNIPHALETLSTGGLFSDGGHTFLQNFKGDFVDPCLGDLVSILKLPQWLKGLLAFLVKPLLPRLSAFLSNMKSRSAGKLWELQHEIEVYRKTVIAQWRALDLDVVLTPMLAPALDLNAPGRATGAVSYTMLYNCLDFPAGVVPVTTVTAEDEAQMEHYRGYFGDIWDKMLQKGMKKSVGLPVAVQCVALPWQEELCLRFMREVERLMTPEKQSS

FAAH = details: cited from earlier work

In the case of `O=C(Oc1ccccc1)N1CCC(c2nc(C3=NOC(c4ccccc4)C3)cs2)CC1` (stereo not shown) [Compound 1a, phenyl 4-[4-(4,5-dihydro-5-phenyl-3-isoxazolyl)-2-thiazolyl]-1-piperidinecarboxylate], the “Analgesia in tail flick test” value (Male ICR mice) is reported as “significant analgesic effects” and the “Analgesia in tail flick test, dose-response” value (shortened to “Analgesia … dose-response”) (Male ICR mice) is reported as “failed to produce significant analgesia”.

With `N#Cc1ccc(OC(=O)N2CCC(c3nc(C4=NOC(c5ccccc5)C4)cs3)CC2)cc1` (stereo not shown) [Compound 1b] the “Analgesia in tail flick test” value (Male ICR mice) was “significant analgesic effects” and the “Analgesia … dose-response” value (Male ICR mice) was “clear dose-dependent effects down to 5 mg/kg”.

In the case of `O=C(Oc1cccnc1)N1CCC(c2nc(C3=NOC(c4ccccc4)C3)cs2)CC1` (stereo not shown) [Compound 1o], the “Analgesia in tail flick test” value (Male ICR mice) is reported as “did not produce analgesia”.

For `COc1ccc(OC(=O)N2CCC(c3nc(C4=NOC(c5ccccc5)C4)cs3)CC2)cc1` (stereo not shown) [Compound 1p], the “Analgesia in tail flick test” value (Male ICR mice) was “did not produce analgesia”.

For `O=C(Nc1cnccn1)N1CCC(c2nc(C3=NOC(c4ccccc4)C3)cs2)CC1` (stereo not shown) [Compound 2e], the “Analgesia in tail flick test” value (Male ICR mice) was “significant analgesic effects” and the “Analgesia … dose-response” value (Male ICR mice) was “failed to produce significant analgesia”.

For `O=C(Nc1cccnn1)N1CCC(c2nc(C3=NOC(c4ccccc4)C3)cs2)CC1` (stereo not shown) [Compound 2f], the “Analgesia in tail flick test” value (Male ICR mice) was “significant analgesic effects” and the “Analgesia … dose-response” value (Male ICR mice) was “failed to produce significant analgesia”.

For `O=C(Nc1ccccc1)N1CCN(c2nc(-c3ccccc3)ns2)CC1` [JNJ-1661010], the “Recovery of FAAH activity after dialysis” value (human FAAH) was roughly 30%.

In the case of `O=C(Nc1cccnc1)N1CCC(Cc2cccc(Oc3ccc(C(F)(F)F)cn3)c2)CC1` [PF-3845], the “kinact reported for other chemotypes” value (FAAH) is given as 0.0033 s⁻¹.

For `NC(=O)c1cccc(-c2cccc(OC(=O)NC3CCCCC3)c2)c1` [URB597], the IC50 (FAAH; read-out: IC50 reported in the literature) is listed as […].
